Our source for the IC50 and inhibition values is patent EP3807270B1, “NOVEL HETEROARYL HETEROCYCLYL COMPOUNDS FOR THE TREATMENT OF AUTOIMMUNE DISEASE” (F. Hoffmann-La Roche AG, priority 2018, dated 2019).

The target in series [1] is T1, hTLR7 (Homo sapiens, UniProt Q9NYK1).
T1 sequence (Q9NYK1 27-1049): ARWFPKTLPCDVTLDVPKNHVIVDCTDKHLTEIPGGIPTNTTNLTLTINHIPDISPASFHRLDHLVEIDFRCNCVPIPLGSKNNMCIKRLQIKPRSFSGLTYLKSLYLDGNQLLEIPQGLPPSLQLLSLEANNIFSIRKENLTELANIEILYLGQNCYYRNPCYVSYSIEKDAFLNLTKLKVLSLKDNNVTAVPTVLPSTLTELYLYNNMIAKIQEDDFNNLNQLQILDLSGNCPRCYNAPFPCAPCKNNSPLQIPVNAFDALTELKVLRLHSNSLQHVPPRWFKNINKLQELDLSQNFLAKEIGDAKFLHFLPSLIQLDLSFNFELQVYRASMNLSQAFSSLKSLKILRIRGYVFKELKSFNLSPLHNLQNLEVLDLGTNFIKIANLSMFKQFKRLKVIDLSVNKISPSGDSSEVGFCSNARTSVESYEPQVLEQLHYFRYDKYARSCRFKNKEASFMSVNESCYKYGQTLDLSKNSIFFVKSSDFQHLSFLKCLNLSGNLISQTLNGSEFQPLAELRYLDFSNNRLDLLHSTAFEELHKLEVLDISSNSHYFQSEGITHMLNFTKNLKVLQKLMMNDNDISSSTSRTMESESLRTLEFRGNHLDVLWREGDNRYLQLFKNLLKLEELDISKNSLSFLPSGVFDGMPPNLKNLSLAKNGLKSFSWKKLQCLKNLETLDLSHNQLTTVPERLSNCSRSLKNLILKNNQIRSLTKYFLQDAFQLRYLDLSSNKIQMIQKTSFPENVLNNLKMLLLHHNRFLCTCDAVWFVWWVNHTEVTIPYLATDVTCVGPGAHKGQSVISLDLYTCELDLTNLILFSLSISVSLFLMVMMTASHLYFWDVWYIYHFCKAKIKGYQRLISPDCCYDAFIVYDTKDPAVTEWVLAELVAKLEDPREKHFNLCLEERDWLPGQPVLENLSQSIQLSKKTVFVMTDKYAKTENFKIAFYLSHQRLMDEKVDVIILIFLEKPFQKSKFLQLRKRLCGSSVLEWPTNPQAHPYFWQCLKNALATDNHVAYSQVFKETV
The series is described as follows: HEK293-Blue-hTLR-7 cells assay (SEAP reporter, R848 stimulation). Set-up: host or cells: HEK293 (HEK-Blue). The settings on record: HEK293-Blue-hTLR7 cells, R848, 20 hrs; read-out: HEK/hTLR7 IC50. The format is cell-based. The text has this: A stable HEK293-Blue-hTLR-7 cell line was purchased from InvivoGen (Cat.#: hkb-htlr7, San Diego, California, USA). These cells were originally designed for studying the stimulation of human TLR7 by monitoring the activation of NF-κB. A SEAP (secreted embryonic alkaline phosphatase) reporter gene was placed under the control of the IFN-β minimal promoter fused to five NF-κB and AP-1-binding sites. The SEAP was induced by activating NF-xB and AP-1 via stimulating HEK-Blue hTT,R7 cells with TLR7 ligands. Therefore, the reporter expression was declined by TLR7 antagonist under the stimulation of a ligand, such as R848 (Resiquimod), for incubation of 20 hrs. The cell culture supernatant SEAP reporter activity was determined using QUANTI-Blue™ kit (Cat.#: rep-qb1, Invivogen, San Diego, Ca, USA) at a wavelength of 640 nm, a detection medium that turns purple or blue in the presence of alkaline phosphatase.
HEK293-Blue-hTLR7 cells were incubated at a density of 250,000-450,000 cells/mL in a volume of 170 µL in a 96-well plate in Dulbecco's Modified Eagle's medium (DMEM) containing 4.5 g/L glucose, 50 U/mL penicillin, […], […], 2 mM L-glutamine, 10% (v/v) heat-inactivated fetal bovine serum with addition of 20 µL test compound in a serial dilution in the presence of final DMSO at 1% and 10 µL of 20uM R848 in above DMEM, perform incubation under 37 °C in a CO2 incubator for 20 hrs. Then 20 µL of the supernatant from each well was incubated with 180 µL Quanti-blue substrate solution at 37 °C for 2 hrs and the absorbance was read at 620-655 nm using a spectrophotometer. The signaling pathway that TLR7 activation leads to downstream NF-xB activation has been widely accepted, and therefore similar reporter assay was modified for evaluating TLR7 antagonist.

Series [2] has as its target T2, CYP2D6 (Homo sapiens, UniProt P10635).
T2 construct: tissue BD-Gentest 452117; host or cells: human liver microsomes
The series is described as follows: CYP inhibition assay in human liver microsome. The settings on record: human liver microsomes, probe dextromethorphan, 10µM test compound, dextromethorphan substrate, <0: not or weak inhibitor, read-out: CYP 2D6 inhibition %@10µM. The series is classed as in vitro ADME. As for the experimental part:
This is a high throughput screening assay used for assessment of reversible inhibition of CYP2D6 activity of test compounds in human liver microsome (HLM) in early discovery stage. Table 4. Chemicals and materials used in the CYP inhibition assay
10 mM DMSO stock solutions of test compounds were diluted in DMSO to generate 2 mM intermediate stock solution. 250 nL of intermediate stock solution were transferred in duplicate into 3 separate 384 well microtitre plates (assay-ready plates). A mixture of HLM and each substrate was made up. 45 µL of HLM substrate mix was then transferred to each well of an assay ready plate and mixed. The negative (solvent) and positive control (standard inhibitor for CYP 2D6) were included in each assay ready plate. The assay ready plate was warmed to 37 °C in an incubator over 10 minutes. 5 µL pre-warmed NADPH regenerating system was added to each incubation well to start the reaction. Final incubation volume was 50 µL. The assay plate then was placed back in the 37 °C incubator. After 10-minute incubation, incubates were quenched by addition of 50 µL 100% acetonitrile containing internal standards (20 ng/mL D3-Dextrorphan). The supernatants were collected for RapidFire/MS/MS analysis.
RapidFire online solid phase extraction/sample injection system (Agilent) coupled with API4000 triple quadrupole mass spectrometer (AB Sciex) were used for sample analysis. The mobile phase composed of acetonitrile and water supplemented with 0.1% formic acid. A C4 solid phase extraction cartridge is used for sample separation. MS detection is achieved in positive ion MRM mode.
Peak areas for substrate, metabolite and internal standard are determined using the RapidFire integrator software (version 3.6.12009.12296). Peak area ratios (PAR) of metabolite and internal standard (stable-labelled metabolite) are then calculated. The measurement window for each experiment is then defined: • PAR (0% activity)= average PAR for all incubations containing concentrated inhibitor; • Par (100% activity)= average PAR for all incubations containing no inhibitor (DMSO controls); • % Activity (test inhibitor) • =[PAR(test inhibitor)-PAR(0% activity)]/[PAR(100% activity)-PAR(0% activity)]; • % Inhibition (test inhibitor)=100-% Activity (test inhibitor).

T2 sequence (P10635 whole entry): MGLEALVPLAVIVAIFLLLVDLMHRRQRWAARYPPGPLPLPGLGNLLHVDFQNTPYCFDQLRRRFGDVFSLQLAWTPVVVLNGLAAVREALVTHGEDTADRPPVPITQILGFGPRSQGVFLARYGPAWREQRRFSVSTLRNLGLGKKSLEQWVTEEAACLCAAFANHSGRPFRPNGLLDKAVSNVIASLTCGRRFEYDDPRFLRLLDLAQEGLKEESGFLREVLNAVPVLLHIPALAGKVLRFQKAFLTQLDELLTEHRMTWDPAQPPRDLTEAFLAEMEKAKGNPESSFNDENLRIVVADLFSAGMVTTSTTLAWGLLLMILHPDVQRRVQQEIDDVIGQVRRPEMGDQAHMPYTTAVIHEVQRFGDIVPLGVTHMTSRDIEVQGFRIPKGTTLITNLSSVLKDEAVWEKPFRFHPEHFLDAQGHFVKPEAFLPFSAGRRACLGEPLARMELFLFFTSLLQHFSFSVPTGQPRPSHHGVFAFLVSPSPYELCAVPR

For orientation: inhibition means the relative decrease from the control value, in per cent. For `C[C@@H]1CN(c2ccc(C#N)c3ncccc23)C[C@H](CN2C[C@H]3CN(c4ccc5c(n4)CCNC5)CC[C@H]32)O1` (single isomer, unassigned) [Example 55], in series [1], the IC50 came out at 4 nM. Further, in series [2], the inhibition at 10 min, 10 µM was determined as 10.5%.

Turning to `C[C@@H]1CN(c2ccc(C#N)c3ncccc23)C[C@H](CN2CCN(c3cnc4c(c3)CN[C@@H]4C)CC2)O1` (single isomer, unassigned) [Example 68], the IC50 in series [1] worked out at 13 nM. Further, the inhibition at 10 min, 10 µM in series [2] worked out at 6%.

Regarding `C[C@@H]1CN(c2ccc(C#N)c3ncccc23)C[C@H](CN2CCN(c3cc4c(cn3)[C@@H](C)NCC4)CC2)O1` (single isomer, unassigned) [Example 73], the IC50 in series [1] amounted to 17 nM. The inhibition at 10 min, 10 µM in series [2] stood at 6%.

For the compound `C[C@@H]1CN(c2ccc(C#N)c3ncccc23)C[C@H](CN2CCN(c3cc4c(cn3)CCN[C@@H]4C)CC2)O1` (single isomer, unassigned) [Example 74], the IC50 in series [1] was 7 nM. Moreover, the inhibition at 10 min, 10 µM in series [2] was determined as 6%.

For `C[C@@H]1CN(c2ccc(C#N)c3ncccc23)C[C@H](CN2CCN(c3cc4c(cn3)C[C@H](C)NC4)CC2)O1` (single isomer, unassigned) [Example 76], the IC50 in series [1] was found to be 14 nM. Also, the inhibition at 10 min, 10 µM in series [2] came out at 6%.

For the compound `C[C@@H]1CN(c2ccc(C#N)c3nccnc23)C[C@H](CN2CCN(c3ccc4c(n3)CN[C@H]4C)CC2)O1` (single isomer, unassigned) [Example 78], the IC50 in series [1] was found to be 5 nM. Besides, the inhibition at 10 min, 10 µM in series [2] was determined as 0.5%.

For `C[C@@H]1CN(c2ccc(C#N)c3nccnc23)C[C@H](CN2CCN(c3ccc4c(n3)CN[C@@H]4C)CC2)O1` (single isomer, unassigned) [Example 79], the IC50 in series [1] was found to be 8 nM. The inhibition at 10 min, 10 µM in series [2] was 5.5%.

As for `C[C@@H]1CN(c2ccc(C#N)c3nccnc23)C[C@H](CN2CCN(c3cc4c(cn3)C[C@H](C)NC4)CC2)O1` (single isomer, unassigned) [Example 81], in series [1], the IC50 is 5 nM. In series [2], the inhibition at 10 min, 10 µM was determined as 3.5%.

For `C[C@@H]1Cc2cc(N3CCN(C[C@H]4CN(c5ccc(C#N)c6nccnc56)C[C@@H](C)O4)CC3)ncc2CN1` (single isomer, unassigned) [Example 83], in series [1], the IC50 came out at 6 nM. In addition, in series [2], the inhibition at 10 min, 10 µM is -8%.

Regarding `C[C@@H]1CN(c2ccc(C#N)c3nccnc23)C[C@H](CN2CCN(c3cc4c(cn3)CN[C@@H](C)C4)CC2)O1` (single isomer, unassigned) [Example 84], in series [1], the IC50 was 7 nM. Moreover, the inhibition at 10 min, 10 µM in series [2] is -1.5%.

Consider `C[C@@H]1CN(c2ccc(C#N)c3ncccc23)C[C@H](CN2CC3[C@H](C2)OCCN3c2ccc3c(n2)CCNC3)O1` (stereo in doubt) [Example 53, cis-5-[(2R,6S)-2-methyl-6-[[4-(5,6,7,8-tetrahydro-1,6-naphthyridin-2-yl)-2,3,4a,5,7,7a-hexahydropyrrolo[3,4-b][1,4]oxazin-6-yl]methyl]morpholin-4-yl]quinoline-8-carbonitrile], for which, in series [1], the IC50 came to 3 nM. For the same compound, in series [2], the inhibition at 10 min, 10 µM was 24%.

For the compound `C[C@@H]1CN(c2ccc(C#N)c3ncccc23)C[C@H](CN2CCN(c3cccc4c3CNC4)CC2)O1` [Example 2, 5-[(2S,6R)-2-[(4-isoindolin-4-ylpiperazin-1-yl)methyl]-6-methyl-morpholin-4-yl] quinoline-8-carbonitrile], in series [1], the IC50 was found to be 4 nM. For the same compound, the inhibition at 10 min, 10 µM in series [2] was -5%.

With `C[C@@H]1CN(c2ccc(C#N)c3ncccc23)C[C@H](CN2CCN(c3ccc4c(c3)CCNC4)CC2)O1` [Example 5, 5-[(2R,6S)-2-methyl-6-[[4-(1,2,3,4-tetrahydroisoquinolin-6-yl)piperazin-1-yl]methyl]morpholin-4-yl]quinoline-8-carbonitrile], in series [1], the IC50 is 31 nM. For the same compound, the inhibition at 10 min, 10 µM in series [2] came out at 0.5%.

As for `Cc1nc2c(nc1N1CCN(C[C@H]3CN(c4ccc(C#N)c5ncccc45)C[C@@H](C)O3)CC1)CCNC2` [Example 60, 5-[(2R,6S)-2-methyl-6-[[4-(3-methyl-5,6,7,8-tetrahydropyrido[3,4-b]pyrazin-2-yl)piperazin-1-yl]methyl]morpholin-4-yl]quinoline-8-carbonitrile], the IC50 in series [1] stood at 11 nM.

With `C[C@@H]1CN(c2ccc(C#N)c3ncccc23)C[C@H](CN2CCN(c3ncnc4c3CNCC4)CC2)O1` [Example 61, 5-[(2R,6S)-2-methyl-6-[[4-(5,6,7,8-tetrahydropyrido[4,3-d]pyrimidin-4-yl)piperazin-1-yl]methyl]morpholin-4-yl]quinoline-8-carbonitrile], the IC50 in series [1] was 5 nM.

For the compound `C[C@@H]1CN(c2ccc(C#N)c3ncccc23)C[C@H](CN2CCN(c3nccc4c3CCNC4)CC2)O1` [Example 62, 5-[(2R,6S)-2-methyl-6-[[4-(5,6,7,8-tetrahydro-2,6-naphthyridin-1-yl)piperazin-1-yl]methyl]morpholin-4-yl]quinoline-8-carbonitrile], the IC50 in series [1] is < 3 nM.

Consider `COc1ccc(N2CCN(C[C@H]3CN(c4ccc(C#N)c5ncccc45)C[C@@H](C)O3)CC2)cc1` [Example R1, 5-[(2S,6R)-2-[[4-(4-methoxyphenyl)piperazin-1-yl]methyl]-6-methyl-morpholin-4-yl]quinoline-8-carbonitrile, reference compound], for which, in series [1], the IC50 was 95 nM.

With `C[C@@H]1CN(c2ccc(C#N)c3ncccc23)C[C@H](CN2CCN(c3ccc(Cl)cc3)CC2)O1` [Example R2, 5-[(2S,6R)-2-[[4-(4-chlorophenyl)piperazin-1-yl]methyl]-6-methyl-morpholin-4-yl]quinoline-8-carbonitrile, reference compound], the IC50 in series [1] was 210 nM.
